Data on four compounds can be found in patent US20170290886A1, “TREATMENT OF NEURODEVELOPMENTAL DISORDERS” (Academia Sinica, priority 2016, published 2017).

What all share (assay type): in vivo, rat
Data set [1] has as its system MeCP2 phosphorylation at Ser-421. The data set is described as follows: MeCP2 phosphorylation at Ser-421 in CA1 area (western blot). The settings on record: 1 hr. How it is done:
(§1) The E3 SUMO-protein ligase PIAS1, MeCP2, Flag, V5 and Myc, the clarified lysate (0.5 mg) was immunoprecipitated by mixed with 0.5 μl of anti-PIAS1 antibody (Catalog No. 2474-1, Epitomics, Burlingame, Calif.), 2 μl of anti-MeCP2 antibody (Catalog No. 3456, Cell Signaling, Danvers, Mass.), 2 μl of anti-Flag M2 antibody (Catalog No. F1804, Sigma-Aldrich, St. Louis, Mo.), 1 μl of anti-VS antibody (Catalog No. MCA2895, AbD Serotec, Kidlington, UK) and 2 μl of anti-Myc antibody (Catalog No. 05-419, Millipore, Bedford, Mass.) at 4° C., and allowed the mixture to react overnight. Twenty microliter of rabbit or mouse IgG was used in the control group. The protein A or G magnetic beads ([…], 50% slurry, GE Healthcare, Barrington, IL) were added to the IP reaction product to catch the immune complex at 4° C. for 3 h. The immune complex on beads were washed three times with washing buffer containing 20 mM HEPES (pH 7.4), 150 mM NaCl, 1 mM EDTA, 1% IGEPAL CA-630, 1 mM DTT, 50 mM β-glycerophosphate, 50 mM NaF, 10 mg/ml PMSF, 4 µg/ml aprotinin, 4 μg/ml leupeptin and 4 μg/ml pepstatin, and then subject to 8% SDS-PAGE followed by transferring onto the Nitrocellulose (NC) membrane (GE Healthcare). […] The protein bands were quantified by using the NIH Image J Software. […]

For data set [2], the system named is MeCP2 SUMOylation. The data set is described as follows: In vitro SUMOylation assay for CA1 tissue. As to the method: Hippocampal CA1 tissue lysate was prepared in the same way as that prepared for western blot. For immunoprecipitating the MeCP2, the clarified lysate (0.5 mg) was immunoprecipitated with 3 μl of anti-MeCP2 antibody (Catalog No. 3456, Cell Signaling) at […] overnight. The protein A agarose beads ([…], 50% slurry, GE Healthcare, Barrington, Ill.) were added to the IP reaction product to catch the immune complex at […] for 3 h. The immune complex on beads were washed three times with washing buffer containing 20 mM HEPES (pH 7.4), 150 mM NaCl, 1 mM EDTA, 1% IGEPAL CA-630, 1 mM DTT, 50 mM β-glycerophosphate, 50 mM NaF, […] PMSF, […] and subject to in vitro SUMOylation reaction with the addition of recombinant PIAS1 protein (3 μl, Catalog No. BML-UW9960, Enzo Life
Sciences, Farmingdale, N.Y.), E1(1 μl), E2 (1 μl) and the SUMO1 (0.5 μl) proteins provided in the kit. In vitro SUMOylation assay was performed using the SUMO linkTM kit according to the manufacturer's instructions (Active Motif, Carlsbad, Calif.) and boiled in Laemmli sample buffer at 95° C. for 10 min. The in vitro SUMOylation product was subject to 8% SDS-PAGE followed by transferring onto the PVDF membrane (Millipore). The membrane was immunoblotted with anti-MeCP2 antibody (1:1000, Catalog No. 3456, Cell Signaling) or anti-SUMO1 antibody (1:4000, Catalog No. 40120, Active Motif). For determination of endogenous MeCP2 SUMOylation after PIAS1 siRNA transfection, no E1, E2, SUMO1 and PIAS1 proteins were added to the IP reaction product. The remaining procedures were the same as that for carrying out the in vitro SUMOylation assay.
Rats were anesthetized with pentobarbital (40 mg/kg) and subject to stereotaxic surgery. Two 23-gauge, stainless-steel, thin-wall cannulae were implanted bilaterally to the CA1 area of rat brain at the following coordinates: 3.5 mm posterior to the bregma, ±2.5 mm lateral to the midline and 3.4 mm ventral to the skull surface. After recovery from the surgery, NMDA (2 μg/μl), IGF-1 (100 ng/ml), CRF (100 ng/μl) and dexamethasone (30 ng/μl) were directly injected to the CA1 area at a rate of 0.1 μl/min. A total of 0.7 μl was injected to each side. For transient Mecp2 plasmid DNA transfection, 0.7 μg/μl plasmid DNA complex ([…]) was injected directly to CA1 area bilaterally in the rat brain using the non-viral transfection agent polyethyleneimine (PEI). Before injection, plasmid DNA was diluted in 5% glucose to a stock concentration of 2.77 μg/μl. Branched PEI of 25 kDa (Sigma, St. Louis, Mo.) was diluted to 0.1 M concentration in 5% glucose and added to the DNA solution. Immediately before injection, 0.1 M PEI was added to reach a ratio of PEI nitrogen per DNA phosphate equals to 10. […]

Data set [3] concerns PIAS1. The data set is described as follows: PIAS1 expression in CA1 area (western blot). The settings on record: siRNA 8 pmol; FIG. 2h lower panel. How it is done: as §1
(A western blot detects proteins with antibodies after separation by electrophoresis.)

Where no end group is shown, it is not given here.

Take `CN[C@H](CC(=O)O)C(=O)O` [NMDA, N-methyl-D-aspartate]: the “phosphorylation level of MeCP2 at Ser-421” value in data set [1] (NMDA 2 μg/μl injected to CA1 area, FIG. 3b) is “increased the phosphorylation level of MeCP2 at Ser-421”. Also, the “level of MeCP2 SUMOylation” value in data set [2] (NMDA 2 μg/μl injected to CA1 area, 1 hr, vs Flag-vector + PBS, FIG. 3b) is “increased the level of MeCP2 SUMOylation”.

With “CRF: Corticotropin-releasing factor, purchased from Sigma-Aldrich (SEEPPISLDLTFHLLREVLEMARAEQLAQQAHSNRKLMEII; ends and bridges not checked; UniProt P06850 154-194, looked up)”, the “level of MeCP2 SUMOylation” value in data set [2] (CRF injected to CA1 area, 1 hr later, vs PBS, FIG. 3d) was “markedly increased the level of MeCP2 SUMOylation”.

“IGF-1: Insulin-like growth factor-1, purchased from Sigma-Aldrich”: the “phosphorylation level of MeCP2 at Ser-421” value in data set [1] (IGF-1 100 ng/ml injected to CA1 area, FIG. 3c) was “increased the phosphorylation level of MeCP2 at Ser-421”. For the same compound, in data set [2] (IGF-1 100 ng/ml injected to CA1 area, 1 hr later, vs PBS, FIG. 3c), the “level of MeCP2 SUMOylation” value is “significantly increased the level of MeCP2 SUMOylation”.

With “PIAS1 siRNA: siRNA against PIAS1, SEQ ID NO: 18 and 19 (chain 1 UCCGGAUCAUUCUAGAGCUTT; chain 2 AGCUCUAGAAUGAUCCGGATT; chemistry not given here)”, the “PIAS1 expression in CA1 area” value in data set [3] is “decreased PIAS1 expression”. The “level of endogenous MeCP2 SUMOylation” value in data set [2] (siRNA 8 pmol to CA1 area, 48 hrs later, vs control siRNA, FIG. 2g, 2h) is recorded as “significantly decrease the level of endogenous MeCP2 SUMOylation”.
